Results: patent publication US20150005288A1, “SUBSTITUTED PHENYLIMIDAZOPYRAZOLES AND USE THEREOF” (Bayer Intellectual Property GmbH, priority 2012, published 2015)

Experiments:
[1] = target: T1, intracellular domain of human Tie2 (GST fusion protein) (Homo sapiens, UniProt Q02763); test: Tie2 kinase assay (Tie2-TR-FRET); type: biochemical; settings: ATP concentration 1 mM, in some cases means of several independent determinations
T1 construct: intracellular domain of human Tie2 (amino acids 776-1124); made in house; host or cells: Baculovirus-infected insect cells (Hi5)
T1 sequence (Q02763 776-1124): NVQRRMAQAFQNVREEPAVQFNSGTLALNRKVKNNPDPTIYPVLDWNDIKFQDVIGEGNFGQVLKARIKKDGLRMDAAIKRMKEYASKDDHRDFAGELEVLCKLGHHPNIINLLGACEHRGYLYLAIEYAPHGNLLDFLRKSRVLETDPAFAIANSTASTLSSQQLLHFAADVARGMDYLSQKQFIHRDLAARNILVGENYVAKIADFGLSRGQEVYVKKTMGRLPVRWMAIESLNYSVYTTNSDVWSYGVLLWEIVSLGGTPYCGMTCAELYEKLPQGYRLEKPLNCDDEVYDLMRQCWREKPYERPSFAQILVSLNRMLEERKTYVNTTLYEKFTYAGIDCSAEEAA
Procedure, shortened: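 GST fusion of human Tie2 intracellular domain (aa 776-1124, Hi5-expressed), ~30 ng/ml, pre-incubated 15 min with compound, then 1 mM ATP and 1 μM biotinylated peptide, 60 min at 22 °C, pH 7. TR-FRET (Eu anti-phosphotyrosine/streptavidin-XL665, 665/620 nm ratio). […] 20 μM–0.073 nM in duplicate; IC50 by 4-parameter fit.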

endogenous Tie2 receptor = target: T2, endogenous Tie2 receptor (Homo sapiens, UniProt Q02763); test: Tie2-pTyr-ELISA: autophosphorylation of endogenous Tie2 receptor in HUVEC; type: cell-based; settings: autophosphorylation elevated by sodium orthovanadate (4 mM), Tie2/phosphotyrosine sandwich ELISA, from 2-7 independent measurements
T2 construct: the endogenous Tie2 receptor; host or cells: HUVEC (human umbilical vein endothelial cells)
T2 sequence (Q02763 23-1124): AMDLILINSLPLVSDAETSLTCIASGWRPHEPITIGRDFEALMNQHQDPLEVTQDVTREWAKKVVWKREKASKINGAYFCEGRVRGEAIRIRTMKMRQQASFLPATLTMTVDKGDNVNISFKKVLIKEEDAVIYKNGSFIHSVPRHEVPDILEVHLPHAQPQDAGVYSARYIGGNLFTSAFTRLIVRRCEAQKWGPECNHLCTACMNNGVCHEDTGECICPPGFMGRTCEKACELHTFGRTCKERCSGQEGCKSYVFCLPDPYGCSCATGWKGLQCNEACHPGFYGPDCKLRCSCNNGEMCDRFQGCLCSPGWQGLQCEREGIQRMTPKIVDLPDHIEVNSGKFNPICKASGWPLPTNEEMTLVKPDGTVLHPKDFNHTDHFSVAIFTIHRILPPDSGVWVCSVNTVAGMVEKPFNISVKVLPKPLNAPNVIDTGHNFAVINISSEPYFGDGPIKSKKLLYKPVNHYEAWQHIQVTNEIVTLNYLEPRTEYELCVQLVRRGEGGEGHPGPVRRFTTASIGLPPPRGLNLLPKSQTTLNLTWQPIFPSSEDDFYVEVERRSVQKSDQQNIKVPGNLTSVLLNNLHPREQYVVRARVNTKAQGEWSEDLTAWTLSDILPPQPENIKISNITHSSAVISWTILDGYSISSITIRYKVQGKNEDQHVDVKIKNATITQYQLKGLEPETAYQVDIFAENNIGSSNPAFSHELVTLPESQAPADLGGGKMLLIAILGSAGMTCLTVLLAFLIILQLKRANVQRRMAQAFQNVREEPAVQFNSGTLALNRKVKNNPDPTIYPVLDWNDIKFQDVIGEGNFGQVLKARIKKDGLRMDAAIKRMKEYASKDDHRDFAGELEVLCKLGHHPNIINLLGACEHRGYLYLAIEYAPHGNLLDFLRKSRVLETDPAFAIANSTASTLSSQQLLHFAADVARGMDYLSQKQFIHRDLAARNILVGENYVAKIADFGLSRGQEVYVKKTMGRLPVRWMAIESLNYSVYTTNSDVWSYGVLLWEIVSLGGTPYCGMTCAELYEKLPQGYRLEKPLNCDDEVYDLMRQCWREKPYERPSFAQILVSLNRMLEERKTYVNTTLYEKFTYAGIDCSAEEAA
Experimental: The cellular activity of the compounds according to the invention as Tie2 kinase inhibitors was determined in human endothelial cells (HUVEC) by measuring the inhibition of the autophosphorylation, elevated by treatment with sodium orthovanadate, of the endogenous Tie2 receptor by means of a Tie2/phosphotyrosine sandwich ELISA.
Human endothelial cells (human umbilical vein endothelial cells, HUVEC) were obtained from Cellsystems (FC-0003), cultured in Vasculife VEGF complete medium (Cellsystems, LL-1020) with 2% foetal calf serum (FCS) at 37° C./5% CO2 and used for Tie2-ELISA measurements up to passage 8.
HUVEC were plated in a culture volume of 100 μl of Vasculife VEGF complete medium at a cell density of 30 000 cells per well in transparent collagen-coated 96-well cell culture plates (Falcon, #353075) and incubated in an incubation cabinet at 37° C./5% CO2 overnight. The test substances dissolved in DMSO were used to prepare in each case one dilution series in Vasculife VEGF low-serum medium [basal medium with LifeFactors (Cellsystems, LM-0002), without FCS, with 0.1% BSA] without sodium orthovanadate and one dilution series in Vasculife VEGF low-serum-medium with 8 mM sodium orthovanadate in the desired concentrations in the range from 10 pM to 10 μM, the final DMSO concentration being 1%. After removal of the complete medium, 100 μl per well of the dilute substances in low-serum medium without sodium orthovanadate were pipetted onto the cells, and the plates were incubated in an incubation cabinet at 37° C./5% CO2 for 10 min. A further 100 μl of the same substance dilution in low-serum medium with 8 mM sodium orthovanadate were then pipetted into the respective well and the cells were incubated in a volume of now 200 μl in the presence of 4 mM sodium orthovanadate at the desired substance concentration in an incubation cabinet at 37° C./5% CO2 for a further 20 min. The cell supernatant of the plates was then removed and the cells were washed once with 250 μl per well of cold PBS which contained 4 mM sodium orthovanadate. 120 μl of Duschl lysis buffer [50 mM HEPES pH 7.2, 150 mM NaCl, 1 mM MgCl2, 10% glycerol, 1.5% Triton X-100, 4 mM sodium orthovanadate, 250 μl S-PIC phosphatase inhibitor cocktail 2 (Sigma, P5726) and 1 tablet of Complete proteinase inhibitor mixture (Roche, #1836145) per 10 ml] were then added to the cells in each well. The plates were shaken briefly and then incubated on ice for 20 min, and the lysates in the cell culture plates were then frozen at −80° C. for at least 30 min.
For measuring the autophosphorylation of the endogenous Tie2 receptor in the cell lysates prepared, a self-prepared anti-Tie2 antibody directed against the N-terminus of the Tie-2 receptor (1.09 mg/ml) and an HRP-coupled anti-phosphotyrosine antibody (Sigma, A4595, clone pY-20) were used. White 96-well ELISA plates (Lumitrac600, Greiner, #655074) were incubated with 100 μl per well of a 1:1000 dilution of the anti-Tie2 antibody in coating buffer [15 mM Na2CO3, 35 mM NaHCO3, pH 9.6] with shaking at 4° C. overnight. The coated ELISA plates were washed three times with 250 μl PBST buffer [0.1% Tween-20 in PBS], the wells were blocked with 250 μl 3% BSA in PBST buffer with shaking at RT for 1-6 h and washed three more times with 250 μl PBST buffer. From the cell lysate plates thawed in the fridge, in each case 100 μl of lysate were transferred into the coated wells of the ELISA plates, and the plates were incubated with shaking at 4° C. overnight. The plates were washed three times with in each case 250 μl of PBST buffer, and 100 μl of a 1:5000 dilution of the anti-phosphotyrosine HRP antibody in 3% Prionex (Calbiochem, #529600) in PBST were then pipetted into each well and the plates were incubated with shaking and protected from light at 4° C. overnight. […]

SMILES | IC50 [1] | IC50 (endogenous Tie2 receptor)
Cc1cc(NC(=O)c2cc(C#N)cc(S(F)(F)(F)(F)F)c2)cc(-n2ccn3nc(-c4cccnc4)cc23)c1C [Example 102, 3-Cyano-N-{3,4-dimethyl-5-[6-(pyridin-3-yl)-1H-imidazo[1,2-b]pyrazol-1-yl]phenyl}-5-(pentafluoro-λ^6-sulphanyl)benzamide] | 19 nM | 18 nM
Cc1cc(C)c(-n2ccn3nc(-c4cccnc4)cc23)cc1NC(=O)c1cc(F)cc(S(F)(F)(F)(F)F)c1 [Example 107, N-{2,4-Dimethyl-5-[6-(pyridin-3-yl)-1H-imidazo[1,2-b]pyrazol-1-yl]phenyl}-3-fluoro-5-(pentafluoro-λ^6-sulphanyl)benzamide] | 0.6 nM | 0.9 nM
COCc1cc(C(=O)Nc2cc(-n3ccn4nc(-c5cccnc5)cc34)c(C)cc2C)cc(S(F)(F)(F)(F)F)c1 [Example 112, N-{2,4-Dimethyl-5-[6-(pyridin-3-yl)-1H-imidazo[1,2-b]pyrazol-1-yl]phenyl}-3-(methoxymethyl)-5-(pentafluoro-λ^6-sulphanyl)benzamide] | 0.7 nM | 1.4 nM
Cc1cc(C)c(-n2ccn3nc(-c4cccnc4)cc23)cc1NC(=O)c1cc(C#N)nc(C(C)(C)C)c1 [Example 116, 2-tert-Butyl-6-cyano-N-{2,4-dimethyl-5-[6-(pyridin-3-yl)-1H-imidazo[1,2-b]pyrazol-1-yl]phenyl}-isonicotinamide] | 0.5 nM | 2.9 nM
Cc1cc(Cl)c(-n2ccn3nc(-c4cccnc4)cc23)cc1NC(=O)c1cccc(S(F)(F)(F)(F)F)c1 [Example 157, N-{4-Chloro-2-methyl-5-[6-(pyridin-3-yl)-1H-imidazo[1,2-b]pyrazol-1-yl]phenyl}-3-(pentafluoro-λ^6-sulphanyl)benzamide] | 0.5 nM | 1 nM
Cc1ccc(NC(=O)c2cc(C#N)cc(S(F)(F)(F)(F)F)c2)cc1-n1ccn2nc(-c3cnccn3)cc12 [Example 162, 3-Cyano-N-{4-methyl-3-[6-(pyrazin-2-yl)-1H-imidazo[1,2-b]pyrazol-1-yl]phenyl}-5-(pentafluoro-λ^6-sulphanyl)benzamide] | 28 nM | 8.9 nM
